Test [1] deals with T1, BaF3 cells transfected with T315I p210 BCR-Abl (Homo sapiens, UniProt P00519, T315I, cells depend on it).
T1 construct: fused on or other part: P11274 (Breakpoint cluster region protein)
In words: Ba/F3 p210 T315I whole cell proliferation assay (Cell Titer Blue, 72 hours). It is filed as cell-based. As to conditions: 72 hours incubation; read-out: Ba/F3 p210 T315I whole cell proliferation assay, antiproliferation IC50. The procedure: (§1) BaF3 cells (parental or transfected with the following: wild type p210 BCR-Abl and T315I p210 BCR-Abl was obtained from Professor Richard Van Etten (New England Medical Center, Boston, Mass.). Briefly, cells were grown in RPMI 1640 supplemented with 10% characterized fetal bovine serum (HyClone, Logan, Utah) at 37 degrees Celsius, 5% CO2, 95% humidity. Cells were allowed to expand until reaching 80% saturation at which point they were subcultured or harvested for assay use.
(§2) A serial dilution of test compound was dispensed into a 96 well black clear bottom plate (Corning, Corning, N.Y.). For each cell line, three thousand cells were added per well in complete growth medium. Plates were incubated for 72 hours at 37 degrees Celsius, 5% CO2, 95% humidity. At the end of the incubation period Cell Titer Blue (Promega, Madison, Wis.) was added to each well and an additional 4.5 hour incubation at 37 degrees Celsius, 5% CO2, 95% humidity was performed. Plates were then read on a BMG Fluostar Optima (BMG, Durham, N.C.) using an excitation of 544 nm and an emission of 612 nm. Data was analyzed using Prism software (Graphpad, San Diego, Calif.) to calculate IC50's.
In general terms: Resazurin is reduced to fluorescent resorufin, in cell work by metabolically active cells.

The target of test [2] is T2, T315I Abl kinase (SEQ ID NO:2) (Homo sapiens, UniProt P00519, T315I).
T2 construct: purchased deCode Genetics
T2 sequence (P00519 with tags, fused parts or gaps T315I): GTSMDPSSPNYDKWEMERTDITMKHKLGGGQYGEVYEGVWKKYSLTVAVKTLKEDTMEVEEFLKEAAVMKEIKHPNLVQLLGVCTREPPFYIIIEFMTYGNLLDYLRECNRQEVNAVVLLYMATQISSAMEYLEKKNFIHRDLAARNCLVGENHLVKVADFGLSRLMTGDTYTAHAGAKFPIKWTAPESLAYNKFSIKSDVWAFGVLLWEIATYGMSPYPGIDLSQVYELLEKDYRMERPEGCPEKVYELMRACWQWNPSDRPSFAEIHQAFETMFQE
In words: T315I Abl kinase assay (pyruvate kinase/lactate dehydrogenase coupled). As to conditions: 1 h preincubation at 30° C., ATP 500 μM; read-out: Abl T315l Enzyme Assay, biochemical IC50. The procedure:
Abl Kinase (SEQ ID NO:2) Assay
Activity of T315I Abl kinase (SEQ ID NO:2) was determined by following the production of ADP from the kinase reaction through coupling with the pyruvate kinase/lactate dehydrogenase system (e.g., Schindler, et al. Science (2000) 289, 1938-1942). In this assay, the oxidation of NADH (thus the decrease at A340nm) was continuously monitored spectrophometrically. The reaction mixture (100 μl) contained Abl kinase (4.4 nM. […] Abl from deCode Genetics), peptide substrate (EAIYAAPFAKKK, 0.2 mM), MgCl2 (10 mM), pyruvate kinase (4 units), lactate dehydrogenase (0.7 units), phosphoenol pyruvate (1 mM), and NADH (0.28 mM) in 90 mM Tris buffer containing 0.2% octyl-glucoside and 1% DMSO, pH 7.5. Test compounds were incubated with T315I Abl (SEQ ID NO:2) and other reaction reagents at 30° C. for 1 h before ATP (500 μM) was added to start the reaction. The absorption at 340 nm was monitored continuously for 2 hours at 30° C. on Polarstar Optima plate reader (BMG). The reaction rate was calculated using the 1.0 to 2.0 h time frame. Percent inhibition was obtained by comparison of reaction rate with that of a control (i.e. with no test compound). IC50 values were calculated from a series of percent inhibition values determined at a range of inhibitor concentrations using software routines as implemented in the GraphPad Prism software package.

Test [3] concerns the target T3, C-Met kinase (SEQ ID NO:10) (Homo sapiens, UniProt P08581).
T3 construct: purchased Invitrogen PV3143
As to the kind of experiment: C-Met kinase assay (pyruvate kinase/lactate dehydrogenase coupled). As to conditions: 0.5 h preincubation at 22° C., ATP 100 μM; read-out: c-Met Enzyme Assay, biochemical IC50. As to the method: C-Met Kinase (SEQ ID NO:10) Assay
Activity of C-Met kinase (SEQ ID NO:10) was determined by following the production of ADP from the kinase reaction through coupling with the pyruvate kinase/lactate dehydrogenase system (e.g., Schindler, et al. Science (2000) 289, 1938-1942). In this assay, the oxidation of NADH (thus the decrease at A340 nm) was continuously monitored spectrophometrically. The reaction mixture (100 μl) contained C-Met (c-Met residues; 956-1390, from Invitrogen, catalogue #PV3143, 6 nM), polyE4Y (1 mg/ml), MgCl2 (10 mM), pyruvate kinase (4 units), lactate dehydrogenase (0.7 units), phosphoenol pyruvate (1 mM), and NADH (0.28 mM) in 90 mM Tris buffer containing 0.25 mM DTT, 0.2% octyl-glucoside and 1% DMSO, pH 7.5. Test compounds were incubated with C-Met (SEQ ID NO:10) and other reaction reagents at 22° C. for 0.5 h before ATP (100 μM) was added to start the reaction. The absorption at 340 n=was monitored continuously for 2 hours at 30° C. on Polarstar Optima plate reader (BMG). The reaction rate was calculated using the 1.0 to 2.0 h time frame. Percent inhibition was obtained by comparison of reaction rate with that of a control (i.e. with no test compound). IC50 values were calculated from a series of percent inhibition values determined at a range of inhibitor concentrations using software routines as implemented in the GraphPad Prism software package.

The target of test [4] is T4, BaF3 cells transfected with wild type p210 BCR-Abl (Homo sapiens, UniProt P00519).
T4 construct: fused on or other part: P11274 (Breakpoint cluster region protein)
In words: Ba/F3 p210 whole cell proliferation assay (Cell Titer Blue, 72 hours). The test is classed as cell-based. Particulars: 72 hours incubation; read-out: Ba/F3 p210 whole cell proliferation assay, antiproliferation IC50. As to the method: as §1, §2

The next test concerns the target T5, Abl kinase (SEQ ID NO:1) (Homo sapiens, UniProt P00519).
T5 construct: purchased deCode Genetics
T5 sequence (P00519 with tags, fused parts or gaps): T2 sequence (P00519 with tags, fused parts or gaps T315I) with I94T
In words: Abl kinase assay (pyruvate kinase/lactate dehydrogenase coupled, ADP production). As to conditions: 2 h preincubation at 30° C., ATP 500 μM; read-out: Abl Enzyme Assay, biochemical IC50. The procedure:
Abl Kinase (SEQ ID NO:1) Assay
Activity of Abl kinase (SEQ ID NO:1) was determined by following the production of ADP from the kinase reaction through coupling with the pyruvate kinase/lactate dehydrogenase system (e.g., Schindler, et al. Science (2000) 289, 1938-1942). In this assay, the oxidation of NADH (thus the decrease at A340nm) was continuously monitored spectrophometrically. The reaction mixture (100 μl) contained Abl kinase (1 nM. Abl from deCode Genetics), peptide substrate (EAIYAAPFAKKK. 0.2 mM), MgCl2 (10 mM), pyruvate kinase (4 units), lactate dehydrogenase (0.7 units), phosphoenol pyruvate (1 mM), and NADH (0.28 mM) in 90 mM Tris buffer containing 0.2% octyl-glucoside and 3.5% DMSO, pH 7.5. Test compounds were incubated with Abl (SEQ ID NO:1) and other reaction reagents at 30° C. for 2 h before ATP (500 μM) was added to start the reaction. The absorption at 340 nm was monitored continuously for 2 hours at 30° C. on Polarstar Optima plate reader (BMG). The reaction rate was calculated using the 1.0 to 2.0 h time frame. Percent inhibition was obtained by comparison of reaction rate with that of a control (i.e. with no test compound). IC50 values were calculated from a series of percent inhibition values determined at a range of inhibitor concentrations using software routines as implemented in the GraphPad Prism software package.

The target in test [5] is B-Raf(V600E) kinase (SEQ ID NO:11) (Homo sapiens, UniProt P15056, V600E). In words: B-Raf(V600E) kinase assay (pyruvate kinase/lactate dehydrogenase coupled, MEK1 substrate). As to conditions: 1 h preincubation at 30° C., ATP 0.2 mM; read-out: B-Raf V600E Enzyme Assay, biochemical IC50. As to the method: B-Raf(V600E) Kinase Assay
The activity of B-Raf(V600E) kinase (SEQ ID NO:11) was determined by following the formation of ADP from the reaction through coupling with the pyruvate kinase/lactate dehydrogenase system (e.g., Schindler, et al. Science (2000) 289, 1938-1942). In this assay, the oxidation of NADH (thus the decrease at A340nm) was continuously monitored spectrophotometrically. The reaction mixture (100 μl) contained B-Raf(V600E) kinase (0.34 nM nominal concentration, SEQ ID NO:11), unphosphorylated, full-length MEK1 (42 nM, SEQ ID NO:12), MgCl2 (13 mM), pyruvate kinase (3.5 units), lactate dehydrogenase (5.5 units), phosphoenolpyruvate (1 mM), and NADH (0.28 mM), in 60 mM Tris buffer, containing 0.13% octyl-glucoside and 3.5% DMSO concentration at pH 7.5. The test compounds were incubated with the reaction mixture at 30° C. for 1 h. The reaction was initiated by adding ATP (0.2 mM, final concentration). The absorption at 340 nm was continuously monitored for 3 h at 30° C. on a Polarstar Optima plate reader (BMG). The reaction rate was calculated using the 0.5 h to 1.5 h time frame. Percent inhibition was obtained by comparison of reaction rate with that of a control (i.e. with no test compound). IC50 values were calculated from a series of percent inhibition values determined at a range of inhibitor concentrations using software routines as implemented in the GraphPad Prism software package.

Residue numbers refer to the chain shown, from its start. Where a name gives a salt, the structure may show the parent alone.

T3 sequence (P08581 with tags, fused parts or gaps): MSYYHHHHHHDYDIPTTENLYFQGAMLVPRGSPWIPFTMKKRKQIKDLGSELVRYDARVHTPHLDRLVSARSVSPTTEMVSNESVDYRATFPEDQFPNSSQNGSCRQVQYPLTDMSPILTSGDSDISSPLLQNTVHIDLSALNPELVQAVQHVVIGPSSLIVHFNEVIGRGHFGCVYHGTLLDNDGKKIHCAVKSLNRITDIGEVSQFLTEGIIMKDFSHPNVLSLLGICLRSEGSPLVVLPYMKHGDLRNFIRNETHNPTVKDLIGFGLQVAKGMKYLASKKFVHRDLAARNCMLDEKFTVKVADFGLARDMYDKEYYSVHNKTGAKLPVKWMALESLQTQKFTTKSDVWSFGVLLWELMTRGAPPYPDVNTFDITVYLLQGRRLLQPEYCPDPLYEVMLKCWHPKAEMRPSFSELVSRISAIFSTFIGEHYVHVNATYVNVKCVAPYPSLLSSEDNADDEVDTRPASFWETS
B-Raf(V600E) kinase (SEQ ID NO:11), sequence (P15056 with tags, fused parts or gaps V600E): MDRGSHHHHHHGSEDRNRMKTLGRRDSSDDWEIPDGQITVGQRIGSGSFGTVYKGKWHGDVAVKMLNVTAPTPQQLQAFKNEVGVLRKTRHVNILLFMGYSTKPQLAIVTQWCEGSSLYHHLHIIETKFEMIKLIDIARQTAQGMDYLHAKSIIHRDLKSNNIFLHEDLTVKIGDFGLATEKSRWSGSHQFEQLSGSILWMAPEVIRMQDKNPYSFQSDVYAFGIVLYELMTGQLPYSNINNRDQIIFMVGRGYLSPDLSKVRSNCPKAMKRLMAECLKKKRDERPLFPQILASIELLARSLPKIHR

As a reminder, the IC50 is the concentration that gives 50% inhibition. `Cn1cc(-c2cc(Oc3ccc(NC(=O)Nc4cc(C(C)(C)C)nn4-c4ccccc4)c(F)c3)ccn2)cn1` [Example 1, 1-(3-t-butyl-1-phenyl-1H-pyrazol-5-yl)-3-(2-fluoro-4-(2-(1-methyl-1H-pyrazol-4-yl)pyridin-4-yloxy)phenyl)urea]: the GI50 in test [1] and in test [4] was below 100 nM each time. Further, the IC50 (in test [2]; in test [3]; at Abl kinase (SEQ ID NO:1)) was below 100 nM each time.

Turning to `CCCn1cc(-c2cc(Oc3ccc(NC(=O)Nc4cc(CC)nn4-c4cccc(C#N)c4)c(F)c3)ccn2)cn1` [Example 15, 1-(1-(3-cyanophenyl)-S-ethyl-1H-pyrazol-5-yl)-3-(2-fluoro-4-(2-(1-propyl-1H-pyrazol-4-yl)pyridin-4-yloxy)phenyl)urea], the GI50 in test [1] and in test [4] was below 100 nM throughout. Further, the values for the IC50 (in test [3]; in test [5]; on Abl kinase (SEQ ID NO:1)) were below 1000 nM, below 1000 nM and below 100 nM, respectively.

`CCc1cc(NC(=O)Nc2ccc(Oc3ccnc(-c4cnn(CC)c4)c3)cc2F)n(-c2cccc(C#N)c2)n1` [Example 18, 1-(1-(3-cyanophenyl)-3-ethyl-1H-pyrazol-5-yl)-3-(4-(2-(1-ethyl-1H-pyrazol-4-yl)pyridin-4-yloxy)-2-fluorophenyl)urea]: the GI50 in test [1] and in test [4] was below 100 nM each time. Further, the IC50 in test [3] was below 1000 nM; in test [5], below 1000 nM; on Abl kinase (SEQ ID NO:1), below 100 nM.

Take `CC(C)n1ncc(NC(=O)Nc2ccc(Oc3ccnc(-c4cnn(C)c4)c3)cc2F)c1-c1ccccc1` [Example 20, 1-(2-fluoro-4-(2-(1-methyl-1H-pyrazol-4-yl)pyridin-4-yloxy)phenyl)-3-(1-isopropyl-5-phenyl-1H-pyrazol-4-yl)urea]: the GI50 was below 1000 nM in test [1] and below 100 nM in test [4]. Moreover, the IC50 in test [5] was below 10000 nM; on Abl kinase (SEQ ID NO:1), below 100 nM.

Regarding `CCn1ncc(NC(=O)Nc2ccc(Oc3ccnc(-c4cnn(C)c4)c3)cc2F)c1-c1ccccc1` [Example 22, 1-(1-ethyl-5-phenyl-1H-pyrazol-4-yl)-3-(2-fluoro-4-(2-(1-methyl-1H-pyrazol-4-yl)pyridin-4-yloxy)phenyl)urea hydrochloride], the IC50 is below 10000 nM in test [5] and below 1000 nM at Abl kinase (SEQ ID NO:1).

Regarding `CCn1cc(NC(=O)Nc2ccc(Oc3ccnc(-c4cnn(C)c4)c3)cc2F)c(-c2ccccc2)n1` [Example 23, 1-(1-ethyl-3-phenyl-1H-pyrazol-4-yl)-3-(2-fluoro-4-(2-(1-methyl-1H-pyrazol-4-yl)pyridin-4-yloxy)phenyl)urea hydrochloride], the IC50 was below 10000 nM in test [5] and below 100 nM at Abl kinase (SEQ ID NO:1).
